Measured values from ChEMBL document CHEMBL1138245, “Discovery of N1-(6-chloroimidazo[2,1-b][1,3]thiazole-5-sulfonyl)tryptamine as a potent, selective, and orally active 5-HT(6) receptor agonist” (J Med Chem, 2007).

Legend:
[1] = target: T1, 5-hydroxytryptamine receptor 6 (Homo sapiens, UniProt P50406); assay: Displacement of [3H]LSD from human 5HT6 receptor expressed in HeLa cells; assay type: cell-based
[2] = target: T1, 5-hydroxytryptamine receptor 6; assay: Antagonist activity at human 5HT6 receptor expressed in HeLa cells assessed as cAMP production; assay type: functional, cell-based
[3] = target: T1, 5-hydroxytryptamine receptor 6; assay: Agonist activity at human 5HT6 receptor expressed in HeLa cells assessed as cAMP production; assay type: functional, cell-based

T1 sequence (P50406 whole entry): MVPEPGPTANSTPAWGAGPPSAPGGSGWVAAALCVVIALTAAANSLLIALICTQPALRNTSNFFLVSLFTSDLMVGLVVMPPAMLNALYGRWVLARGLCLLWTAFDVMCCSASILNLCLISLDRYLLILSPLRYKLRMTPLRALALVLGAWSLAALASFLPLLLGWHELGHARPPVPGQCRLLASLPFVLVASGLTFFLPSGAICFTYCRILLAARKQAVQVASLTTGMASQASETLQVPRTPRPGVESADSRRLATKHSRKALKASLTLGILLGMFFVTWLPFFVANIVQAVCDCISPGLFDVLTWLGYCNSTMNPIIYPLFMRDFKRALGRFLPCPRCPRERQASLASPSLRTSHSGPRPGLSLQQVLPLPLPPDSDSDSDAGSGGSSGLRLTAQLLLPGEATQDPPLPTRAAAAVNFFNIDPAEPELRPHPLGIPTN

| SMILES | Ki [1] [nM] | IC50 [2] [nM] | Imax [2] [%] | EC50 [3] [nM] | Emax [3] [%] |
| --- | --- | --- | --- | --- | --- |
| NCCc1cn(S(=O)(=O)c2ccc(I)cc2)c2ccccc12 | 14 | – | – | – | – |
| CN1C=C(S(=O)(=O)n2cc(CCN)c3ccccc32)SC1N (stereo not drawn) | 10 | 9.6 | 83 | – | – |
| Cc1ccc(S(=O)(=O)n2cc(CCN)c3ccccc32)cc1 | 8 | – | – | 191 | 87.5 |
| COc1ccc(S(=O)(=O)n2cc(CCN)c3ccccc32)cc1 | 47 | – | – | – | – |
